Laboratory results reported in patent publication US10138212B2, “Aminoquinazoline compounds as A2A antagonist” (Merck Sharp & Dohme Corp., priority 2015, dated 2018).

Key:
[1] = biological target: human A2a receptor (Homo sapiens (Human), UniProt P29274); assay: A2a competition binding assay using Scintillation Proximity technology
Protocol: (§1) Binding affinities of compounds of the invention for the human A2a receptor were determined in a competition binding assay using Scintillation Proximity technology. Thus, 1* μg, or preferably 0.25 μg of membranes from HEK293 cells expressing the human A2a receptor were incubated with a compound of the invention at concentrations ranging from 3000 nM to 0.15 nM in a reaction mixture containing also 0.5 nM of a tritiated form of 5-amino-7-[2-phenethyl]-2-(furan-2-yl)-7H-pyrazolo[4,3-e][1,2,4]triazolo[1,5-c]pyrimidine (the tritiated compound) and 25 μg of wheat germ agglutin-coated yttrium silicate SPA beads for one hour at room temperature with agitation. The beads were then allowed to settle to the bottom of the wells for 1 hr, after which the membrane-associated radioactivity was determined by scintillation counting in a TopCount microplate reader. Ki values were determined using the Cheng-Prusoff equation.
HEK293 cells expressing the human, rat, dog or monkey adenosine 2a receptor (Purchased from Perkin-Elmer # RBHA2AM400UA).
The Tritiated compound was prepared in-house by MRL Radiochemistry according to published methods.
Wheat germ agglutinin-coated yttrium silicate SPA beads (GE Healthcare #RPNQ0023). Dilute to 25 mg/ml in assay buffer.
Assay Buffer was prepared in house: Dulbecco's calcium and magnesium free phosphate buffered saline+10 mM MgCl2
Adenosine deaminase from calf intestine, 10 mg/2 ml (Roche #10 102 105 001).
A2a antagonist standard (9-chloro-1-(2-furanyl)-[1,2,4]triazolo1,5-c]quinazolin-5-amine from Tocris Bioscience)
Make eight 1:3 serial dilutions in 100% DMSO from a 3 mM compound stock
Transfer 50 nl of compound into a 384-well OptiPlate (Perkin Elmer).
Typically, final concentrations of compound used in the assay ranged from 3000 nM to 0.152 nM.
Dilute a solution of the Tritiated compound to 1.25 nM in assay buffer. This is a 2.5× solution. The final concentration in the assay is 0.5 nM. Calculate the concentration by counting two 5 μl aliquots.
Use *1 ug or preferrably 0.25 ug of membrane/well. Dilute membranes to 9.7 μg/ml in assay buffer. Treat with 20 ug/ml adenosine deaminase (ADA) for 15 minutes at room temperature to degrade endogenous adenosine.
Use 25 μg/well wheat germ agglutinin-coated yttrium silicate SPA beads.
Mix ADA-treated membranes and SPA beads together for 30 min prior to assay.
To the Perkin-Elmer Optiplate-384 containing the compound titration add 20 μl of 2.5× solution of the Tritiated compound and 30 μl of the membrane-bead mixture. Incubate for one hour at room temperature with agitation.
Include total binding (assay buffer+1% DMSO) and non-specific binding (CGS15943, 1 μM) wells.
Allow the beads to settle for one hour.
A curve fitting program (i.e., Prism, Activity Base, Chemcart) is used to determine the EC50. The Ki value is calculated using the Cheng-Prusoff equation. Ki=EC50/(1+(radioligand concentration/Kd))
Using the foregoing assay method, the Ki results were obtained using the compounds of the invention described in Tables IIIa, IIIb, and IV. Each example compound tested is reported in the following format: Example number: A2a Ki reported in nM. Thus, for example, the compound Ex-1 was determined to have an Ki using the above-described assay and calculations, of 10.0 nM.

[2] = biological target: human A1 receptor (Homo sapiens (Human), UniProt P30542); assay: A1 competition binding assay using Scintillation Proximity technology; selectivity = A1 binding Ki / A2a binding Ki; settings: A1 binding Ki divided by A2a binding Ki
human A1 receptor, sequence (P30542 whole entry): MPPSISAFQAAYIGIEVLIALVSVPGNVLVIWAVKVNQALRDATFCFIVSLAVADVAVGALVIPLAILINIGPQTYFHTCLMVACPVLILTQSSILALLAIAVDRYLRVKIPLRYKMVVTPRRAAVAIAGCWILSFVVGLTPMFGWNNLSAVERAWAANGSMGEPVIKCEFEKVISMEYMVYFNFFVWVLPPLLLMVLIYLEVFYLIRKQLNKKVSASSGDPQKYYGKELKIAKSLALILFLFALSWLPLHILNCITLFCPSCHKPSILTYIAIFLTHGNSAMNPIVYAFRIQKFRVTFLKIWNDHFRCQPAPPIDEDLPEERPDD
Protocol: as §1, with “A1” for “A2a”, “5” for “1* μg, or preferably 0.25 μg”, “CHO-K1” for “HEK293”, “0.7” for “0.5”, “8-Cyclopentyl-1,3-dipropylxanthine” for “5-amino-7-[2-phenethyl]-2-(furan-2-yl)-7H-pyrazolo[4,3-e][1,2,4]triazolo[1,5-c]pyrimidine”, “in a similar fashion described with A2a binding.” for “using the Cheng-Prusoff equation.”
• Cells expressing the human, rat, dog or monkey adenosine 1 receptor (Purchased from Perkin-Elmer # ES-010-M400UA • [^3H]DPCPX (purchased from Perkin-Elmer NET-974, 8-cyclopentyl-1,3-dipropylxanthine, [dipropyl-2,3-^3H(N)]. • Wheatgerm agglutinin-coated yttrium silicate SPA beads (Purchased from GE Healthcare #RPNQ0023). Dilute to 25 mg/ml in assay buffer. Store at 4° C. • Assay Buffer—Dulbecco's phosphate buffered saline without calcium and without magnesium+10 mM MgCl2 • Adenosine deaminase from calf intestine, 10 mg/2 ml (Roche #10 102 105 001). • DMSO • DPCPX (A1 antagonist) from Tocris Bioscience Compound Dilution • Dilute compounds to 1 mM in 100% DMSO
Make serial dilutions as necessary (i.e., 1:10, 1:3) in 100% DMSO.
Dilute 1:20 into assay buffer (i.e. 3 ul into 57 ul buffer). This is a 5× solution in 5% DMSO.
• Dilute [^3H]DPCPX to 1.75 nM in assay buffer. This is a 2.5× solution. The final concentration in the assay is 0.7 nM. Calculate the concentration by counting two 5 ul aliquots. Membrane Preparation • Use 5 ug of membrane/well. Dilute membranes to 250 ug/ml in assay buffer. Treat with 20 ug/ml adenosine deaminase (ADA) for 15 minutes at room temperature to degrade endogenous adenosine. Membrane-Bead Mixture • Use 25 ug/well wheatgerm agglutinin-coated yttrium silicate SPA beads • Mix ADA-treated membranes and SPA beads together for 30 min prior to assay. Assay Assembly • Add in order to a Perkin-Elmer Optiplate-384: 10 ul of 5× compound, 20 ul of 2.5× [^3H]DPCPX, 20 ul membrane-bead mixture. Incubate for one hour at room temperature with agitation. • Include total binding (assay buffer+1% DMSO) and non-specific binding (DPCPX, 1 uM) wells. Counting and Calculations

[3] = 0.25 μg of membranes from HEK293 cells expressing the human A2a receptor
[4] = * assay run with 1 μg of membranes versus 0.25 μg, HEK293 cells expressing the human A2a receptor

human A2a receptor, sequence (P29274 whole entry): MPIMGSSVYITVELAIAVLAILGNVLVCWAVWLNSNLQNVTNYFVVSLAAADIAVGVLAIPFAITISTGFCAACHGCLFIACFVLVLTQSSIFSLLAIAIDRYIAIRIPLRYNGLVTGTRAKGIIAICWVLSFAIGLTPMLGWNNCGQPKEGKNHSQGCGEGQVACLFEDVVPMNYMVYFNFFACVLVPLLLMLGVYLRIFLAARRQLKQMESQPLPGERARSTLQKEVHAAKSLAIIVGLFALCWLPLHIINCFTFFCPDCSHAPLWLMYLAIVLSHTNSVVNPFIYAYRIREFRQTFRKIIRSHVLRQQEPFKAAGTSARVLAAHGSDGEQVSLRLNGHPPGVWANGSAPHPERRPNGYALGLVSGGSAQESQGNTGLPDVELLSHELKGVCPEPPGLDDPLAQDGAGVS

Row | Compound | Ki [1, 3] [nM] | A2a selectivity (A2a A1 binding selectivity) [2] | Ki [1, 4] [nM]
1 | Cc1cccn2cc(CNC(=O)c3nc(N)nc4c(F)cccc34)nc12 [Example 81, 2-amino-8-fluoro-N-[(8-methylimidazo[1,2-a]pyridin-2-yl)methyl]quinazoline-4-carboxamide] | 6.9 | 12 | –
2 | COc1cccc2c(C(=O)N[C@@H](CO)c3ccc4ccccc4n3)nc(N)nc12 [Example 37, 2-amino-N-[(1R)-2-hydroxy-1-(2-quinolyl)ethyl]-8-methoxy-quinazoline-4-carboxamide] | 8.3 | 32 | –
3 | Nc1nc(C(=O)NCc2cccc3cncn23)c2cccc(F)c2n1 [Example 80, 2-amino-8-fluoro-N-(imidazo[1,5-a]pyridin-5-ylmethyl)quinazoline-4-carboxamide] | – | 21 | 6.2
4 | COc1cccc2c(C(=O)NCc3cccc4cccnc34)nc(N)nc12 [Example 12, 2-amino-8-methoxy-N-(8-quinolylmethyl)quinazoline-4-carboxamide] | 0.2 | 32 | –
5 | COc1cccc2c(C(=O)NCc3cccc4ccncc34)nc(N)nc12 [Example 16, 2-amino-N-(8-isoquinolylmethyl)-8-methoxy-quinazoline-4-carboxamide] | 0.3 | 114 | –
6 | COc1cccc2c(C(=O)NCc3cccc(C(F)(F)F)n3)nc(N)nc12 [Example 18, 2-amino-8-methoxy-N-[[6-(trifluoromethyl)-2-pyridyl]methyl]quinazoline-4-carboxamide] | 0.4 | 412 | –
7 | COc1cccc2c(C(=O)NCc3cccc(COCC(C)C)n3)nc(N)nc12 [Example 51, 2-amino-N-[[6-(isobutoxymethyl)-2-pyridyl]methyl]-8-methoxy-quinazoline-4-carboxamide] | 1.9 | 90 | –
8 | Nc1nc(C(=O)NCC2CC3CCC2C3)c2cccc(F)c2n1 (stereo not shown) [Example 87, 2-amino-8-fluoro-N-(norbornan-2-ylmethyl)quinazoline-4-carboxamide] | – | 3 | 32
9 | CCn1cccc(CNC(=O)c2nc(N)nc3c(OC)cccc23)c1=O [Example 13, 2-amino-N-[(1-ethyl-2-oxo-3-pyridyl)methyl]-8-methoxy-quinazoline-4-carboxamide] | 0.2 | 112 | –
10 | Nc1nc(C(=O)NCC23CC4CC(CC(C4)C2)C3)c2cccc(F)c2n1 [Example 85, N-(1-adamantylmethyl)-2-amino-8-fluoro-quinazoline-4-carboxamide] | 6.4 | 4 | –
11 | COc1cccc2c(C(=O)NCc3cccc(C)n3)nc(N)nc12 [Example 15, 2-amino-8-methoxy-N-[(6-methyl-2-pyridyl)methyl]quinazoline-4-carboxamide] | 0.5 | 319 | –
12 | COc1cccc2c(C(=O)NCc3cccc(COc4ccc(F)cc4)n3)nc(N)nc12 [Example 45, 2-amino-N-[[6-[(4-fluorophenoxy)methyl]-2-pyridyl]methyl]-8-methoxy-quinazoline-4-carboxamide] | 0.3 | 230 | –

Continued, values first:

Row | Ki [1, 3] [nM] | A2a selectivity (A2a A1 binding selectivity) [2] | Ki [1, 4] [nM] | Compound
13 | 5.2 | 14 | – | CC1(O)CCN(c2cccc(CNC(=O)c3nc(N)nc4c(F)cccc34)n2)CC1 [Example 79, 2-amino-8-fluoro-N-[[6-(4-hydroxy-4-methyl-1-piperidyl)-2-pyridyl]methyl]quinazoline-4-carboxamide]
14 | 0.2 | 531 | – | COc1cccc2c(C(=O)NCc3cccc(COc4ccccc4F)n3)nc(N)nc12 [Example 44, 2-amino-N-[[6-[(2-fluorophenoxy)methyl]-2-pyridyl]methyl]-8-methoxy-quinazoline-4-carboxamide]
15 | 4.2 | 63 | – | Cc1csc(-c2cccc(CNC(=O)c3nc(N)nc4c(F)cccc34)n2)n1 [Example 69, 2-amino-8-fluoro-N-[[6-(4-methylthiazol-2-yl)-2-pyridyl]methyl]quinazoline-4-carboxamide]
16 | 0.6 | 314 | – | COc1cccc2c(C(=O)NCc3cccc(C4(O)CCC4)n3)nc(N)nc12 [Example 4, 2-amino-N-[[6-(1-hydroxycyclobutyl)-2-pyridyl]methyl]-8-methoxy-quinazoline-4-carboxamide]
17 | 10 | 145 | – | COc1ccc(C(C)(C)O)nc1CNC(=O)c1nc(N)nc2c(OC)cccc12 [Example 1, 2-amino-N-[[6-(1-hydroxy-1-methyl-ethyl)-3-methoxy-2-pyridyl]methyl]-8-methoxy-quinazoline-4-carboxamide]
18 | 6.5 | 55 | – | Cc1cccc(CNC(=O)c2nc(N)nc3c(Cl)cc(Cl)cc23)n1 [Example 93, 2-amino-6,8-dichloro-N-[(6-methyl-2-pyridyl)methyl]quinazoline-4-carboxamide]
19 | – | 84 | 2.3 | COc1cccc2c(C(=O)NCc3ccccc3-c3ccccn3)nc(N)nc12 [Example 43, 2-amino-8-methoxy-N-[[2-(2-pyridyl)phenyl]methyl]quinazoline-4-carboxamide]
20 | 0.2 | 88 | – | Nc1nc(C(=O)NCc2cccc3cccnc23)c2cccc(OC(F)(F)F)c2n1 [Example 101, 2-amino-N-(8-quinolylmethyl)-8-(trifluoromethoxy)quinazoline-4-carboxamide]
21 | 0.8 | 62 | – | COc1ccc(C)c(CNC(=O)c2nc(N)nc3c(F)cccc23)n1 [Example 77, 2-amino-8-fluoro-N-[(6-methoxy-3-methyl-2-pyridyl)methyl]quinazoline-4-carboxamide]
22 | 3 | – | – | Nc1nc(C(=O)NCc2cccc3c2NCCC3)c2cccc(F)c2n1 [Example 90]
